Results on nine molecules are retold here after patent US10160762B2, “6-alkyl dihydropyrazolopyrimidinone compounds as PDE2 inhibitors” (Merck Sharp & Dohme Corp., priority 2015, dated 2018).

For one data set, the system named is other PDE isoforms. To be noted: reported in Brandon et al., Annual Reports in Medicinal Chemistry 42, 2007; cited from earlier work.
For data set [1] the following is noted: reported in Brandon et al., Annual Reports in Medicinal Chemistry 42, 2007; cited from earlier work.
The next data set has as its target T1, Rhesus PDE2A3 (Macaca mulatta, UniProt B3VTJ2).
T1 construct: made in house; host or cells: AD293 cells, transient transfection; supernatant of sonicated lysate
T1 sequence (B3VTJ2 1-941): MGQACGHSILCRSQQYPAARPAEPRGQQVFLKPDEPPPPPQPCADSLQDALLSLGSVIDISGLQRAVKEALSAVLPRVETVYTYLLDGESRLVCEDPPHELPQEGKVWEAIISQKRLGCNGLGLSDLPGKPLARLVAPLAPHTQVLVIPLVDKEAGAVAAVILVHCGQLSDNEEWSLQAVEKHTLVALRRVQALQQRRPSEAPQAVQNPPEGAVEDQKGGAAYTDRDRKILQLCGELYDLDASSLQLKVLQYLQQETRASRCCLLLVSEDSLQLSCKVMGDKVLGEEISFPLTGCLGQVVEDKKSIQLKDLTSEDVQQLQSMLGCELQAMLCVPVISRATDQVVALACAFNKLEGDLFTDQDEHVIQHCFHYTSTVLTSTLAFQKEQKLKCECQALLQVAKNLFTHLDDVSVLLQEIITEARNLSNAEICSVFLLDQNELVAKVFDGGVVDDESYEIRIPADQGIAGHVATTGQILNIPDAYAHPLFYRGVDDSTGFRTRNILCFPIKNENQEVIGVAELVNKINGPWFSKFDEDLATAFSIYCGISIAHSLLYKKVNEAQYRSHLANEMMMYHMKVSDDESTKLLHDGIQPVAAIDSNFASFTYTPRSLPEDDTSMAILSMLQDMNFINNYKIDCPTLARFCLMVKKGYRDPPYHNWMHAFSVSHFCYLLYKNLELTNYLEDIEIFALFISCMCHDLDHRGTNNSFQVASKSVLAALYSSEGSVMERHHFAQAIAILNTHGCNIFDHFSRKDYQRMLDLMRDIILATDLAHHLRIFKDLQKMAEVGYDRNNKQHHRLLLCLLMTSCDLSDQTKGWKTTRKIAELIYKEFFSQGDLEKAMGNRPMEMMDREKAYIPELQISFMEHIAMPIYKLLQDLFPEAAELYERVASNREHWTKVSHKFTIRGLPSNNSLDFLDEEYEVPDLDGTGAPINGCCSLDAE
Kind of data set: PDE2 fluorescence polarization (IMAP FP) inhibition assay, rhesus PDE2A3. Type of data set: biochemical, rhesus macaque. The procedure:
The activity of the compounds in accordance with the present invention as PDE2 inhibitors may be readily determined using a fluorescence polarization (FP) methodology (Huang, W., et al., J. Biomol Screen, 2002, 7: 215).
The PDE2 inhibitory activity of the compounds of the present invention was determined in accordance with the following experimental method. Rhesus PDE2A3 was amplified from rhesus macaque brain cDNA (Biochain Institute, Hayward, Calif.) using primers based on human PDE2A sequence (accession NM_002599.3) where the forward primer containing a Kozak consensus was 5′-[…]-3′ and the reverse primer was 5′-[…]-3′. Amplification with Easy-A High-Fidelity PCR cloning enzyme (Stratagene, La Jolla, Calif.) was 95° C. for 2 minutes followed by thirty three cycles of 95° C. for 40 seconds, 52° C. for 30 seconds, and 72° C. for 2 minutes 48 seconds. Final extension was 72° C. for 7 minutes. The PCR product was TA cloned into pcDNA3.3-TOPO (Invitrogen, Carlsbad, Calif.) according to standard protocol. A consensus sequence was developed from multiple clones and then deposited into GenBank (EU812167). AD293 cells (Stratagene, La Jolla, Calif.) with 70-80% confluency were transiently transfected with rhesus PDE2A3/pcDNA3.3-TOPO using Lipofectamine 2000 according to manufacturer specifications (Invitrogen, Carlsbad, Calif.). Cells were harvested 48 hours post-transfection and lysed by sonication (setting 3, 10×5 sec pulses) in a buffer containing 20 mM HEPES pH 7.4, 1 mM EDTA and Complete Protease Inhibitor Cocktail Tablets (Roche, Indianapolis, Ind.). Lysate was collected by centrifugation at 75,000×g for 20 minutes at 4° C. and supernatant utilized for evaluation of PDE2 activity. The fluorescence polarization assay for cyclic nucleotide phosphodiesterases was performed using an IMAP® FP kit supplied by Molecular Devices, Sunnyvale, Calif. (product #R8139). […] Assays were performed at room temperature in 384-well microtiter plates with an incubation volume of 20.2 μL. Solutions of test compounds were prepared in DMSO and serially diluted with DMSO to yield 8 μL of each of 10 solutions differing by 3-fold in concentration, at 32 serial dilutions per plate. […] 0% of inhibition is determined by using DMSO (1% final concentrations).
A Labcyte Echo 555 (Labcyte, Sunnyvale, Calif.) is used to dispense 200 nL from each well of the titration plate to the 384 well assay plate. Ten microliters of a solution of enzyme (1/2000 final dilution from aliquots; sufficient to produce 20% substrate conversion) was added to the assay plate. Next 10 uL of a separate solution of the substrate FAM-labeled cAMP (50 nM final concentration product # R7506 from Molecular Devices) and the activator cGMP (1 uM final concentration), prepared in the assay buffer (10 mM Tris HCl, pH 7.2, 10 mM MgCl2, 0.05% NaN3 0.01% Tween-20, and 1 mM DTT) was added to the assay plate and shaken to mix. The reaction is allowed to proceed at room temperature for 60 minutes. A binding solution is then made from the kit components, comprised of 80% Solution A, 20% Solution B and binding reagent at a volume of 1/600 the total binding solution. The enzymatic reaction is stopped by addition of 60 μL of the binding solution to each well of the assay plates and the plates are sealed and shaken for 30 seconds. The plate was incubated at room temperature for at least one hour prior to determining the fluorescence polarization (FP). The parallel and perpendicular fluorescence of each well of the plate was measured using a Tecan Genios Pro plate reader (Tecan, Switzerland) or Perkin Elmer EnVision™ plate reader (Waltham, Mass.). Fluorescence polarization (mP) was calculated from the parallel (S) and perpendicular (P) fluorescence of each sample well and the analogous values for the median control well, containing only substrate (So and Po), using the following equation: Polarization(mP)=1000*(S/So−P/Po)/(S/So+P/Po).

Setting [2] is: Lab B, read-out: Rhesus PDE2 Ki (nM) Lab B.

Like-named read-outs stand apart in the source and are kept apart here.

With `COc1ccc(Cc2nn3c([C@@H](CCCc4ccccc4)[C@@H](C)O)nc(C)c3c(=O)[nH]2)cc1OC` [BAY 60-7550, Bay 60-7550], the “potency at other PDE isoforms” value with other PDE isoforms is “significant potency”. In data set [1], the brain penetration result is “limited”.

For `Cc1nc2c(c(CO)nn2C(c2ccc(C(F)(F)F)cc2)C(C)(C)C)c(=O)[nH]1` (single isomer, unassigned) [Example 82, (R)- or (S)-1-(2,2-Dimethyl-1-(4-(trifluoromethyl)phenyl)-propyl)-3-(hydroxymethyl)-6-methyl-1H-pyrazolo[3,4-d]pyrimidin-4(5H)-one], at Rhesus PDE2A3 (setting [2]), the Ki (in general, a dissociation constant, usually derived from enzyme kinetics or from competition with a known ligand) worked out at 289 nM.

As for `Cc1nc2c(c(C#N)nn2C(C)c2ccc(C(F)(F)F)cc2)c(=O)[nH]1` (single isomer, unassigned) [Example 253], the Ki on Rhesus PDE2A3 (setting [2]) is 703 nM.

For the molecule `Cc1nc2c(c(CC(F)(F)F)nn2C(c2ccc(C(F)(F)F)cc2)C(C)(C)C)c(=O)[nH]1` (single isomer, unassigned) [Example 56, (R)- or (S)-1-(2,2-Dimethyl-1-(4-(trifluoromethyl)phenyl)propyl)-6-methyl-3-(2,2,2-trifluoroethyl)-1H-pyrazolo[3,4-d]pyrimidin-4(5H)-one], the Ki at Rhesus PDE2A3 (setting [2]) was determined as 6020 nM.

As for `Cc1nc2c(c(CO)nn2C(C)c2ccc(S(F)(F)(F)(F)F)cc2)c(=O)[nH]1` (single isomer, unassigned) [Example 76], the Ki at Rhesus PDE2A3 (setting [2]) was found to be 330 nM.

As for `Cc1nc2c(c(CN)nn2C(C)c2ccc(C(F)(F)F)cc2)c(=O)[nH]1` (single isomer, unassigned) [Example 274], the Ki on Rhesus PDE2A3 (setting [2]) was ~14500 nM.

As to `Cc1nc2c(c(C)nn2CC(C)(O)c2ccc(C(F)(F)F)cc2)c(=O)[nH]1` (centres unmarked) [Example 336, 1-(2-Hydroxy-2-(4-(trifluormethyl)phenyl)propyl)-3,6-dimethyl-1H-pyrazolo[4-d]pyrimidin-4(5H)-one], the Ki on Rhesus PDE2A3 (Lab A, read-out: Rhesus PDE2 Ki (nM) Lab A) was > 1000 nM; at Rhesus PDE2A3 (setting [2]), 7660 nM.

For the molecule `COc1cccc(Cc2nc3c(c(CF)nn3C(C)c3ccc(C(F)(F)F)cc3)c(=O)[nH]2)c1` (single isomer, unassigned) [Example 220, (R)- or (S)-3-(Fluoromethyl)-6-(3-methoxybenzyl)-1-(1-(4-(trifluoromethyl)phenyl)ethyl)-1H-pyrazolo[3,4-d]pyrimidin-4(5H)-one], the Ki at Rhesus PDE2A3 (setting [2]) was determined as 189 nM.

As to `Cc1nc2c(c(C)nn2C(C)C(O)c2ccc(C(F)(F)F)cc2)c(=O)[nH]1` (centres unmarked) [Example 332, 1-(1-Hydroxy-1-(4-(trifluoromethyl)phenyl)propan-2-yl)-3,6-dimethyl-1H-pyrazolo[3,4-d]pyrimidin-4(5H)-one], the Ki on Rhesus PDE2A3 (setting [2]) was determined as 8880 nM.
